The record followed here is patent US20250290117A1, “MOLECULAR PHENOTYPIC ANTIMICROBIAL SUSCEPTIBILITY TESTING” (priority 2024, published 2025).

One assay has as its system Escherichia coli. Description: Traditional culture-based antimicrobial susceptibility test. In kind it is cell-based. The text has this:
Table 3 illustrates the results of an example antimicrobial agent susceptibility test of the current application versus a traditional culture-based antimicrobial agent susceptibility test for multiple Escherichia coli isolates, in accordance with one or more embodiments of the disclosure. These specimens underwent extraction or DNA purification prior to PCR. As in Tables 1 and 2, the results of the test of the current application are similar to the results from the traditional test. […]
Table 8 illustrates the results of an example antimicrobial agent susceptibility test of the current application versus a traditional culture-based antimicrobial agent susceptibility test for a low level positive with <10,000 cells/mL in the original specimen. These specimens were tested with direct PCR (e.g., no extraction DNA purification step prior to PCR) after 16 hours of incubation. As in Tables 1, 2, 3, 5, and 7, the results of the test are similar to the traditional test. […]

A further assay concerns pathogen of the specimen. Description: Molecular phenotypic antimicrobial susceptibility test with direct PCR at various incubation timepoints (Table 7). The format is cell-based. As to the method: Detection of Molecular Phenotypic Antimicrobial Susceptibility. Disclosed herein are the methods for the detection of phenotypic antimicrobial susceptibility via molecular methods. The present invention describes how a specimen 100 with a known microbial load is incubated and then exposed to a panel of antimicrobial agents to determine sensitivity (prevention of growth) or resistance (allowance of growth) to the specific antimicrobial agents tested utilizing molecular methods. Sample Collection. Specimens 100 are collected from patients using sterile collection processes that are employed in routine clinical care. Specimens are transported to the testing facility in boric acid preservative. […] The process for pathogen isolation includes steps of harvesting the pathogen (e.g., via centrifugation), isolating pathogen DNA via a DNA isolation and/or purification kit, and performing PCR on the pathogen DNA via PCR components (e.g., primers, enzymes, buffers) as would be known to the skilled artisan. […] This aliquot is used for antimicrobial susceptibility testing if indicated based on the pathogen detection results. […] Specimens 100 with lower pathogen loads could also be utilized in the antibiotic susceptibility phase of testing with or without a longer incubation period. […] Antimicrobial solutions are prepared at known concentrations. The specific antimicrobials and their concentrations are selected based on the pathogen of interest and the described antimicrobial resistance breakpoints for that specimen pathogen and antimicrobial combination. These antimicrobials have been selected based on those commonly utilized by healthcare providers in routine clinical care for the specific type of suspected infection. The number and types of antimicrobials utilized can be customized based on the infection source, pathogen detected, patient-specific factors such as allergies or other health conditions (e.g., chronic kidney disease or concurrent medication use), or healthcare provider preferences such as antimicrobial availability or cost. The antimicrobial solutions are prepared in liquid culture media (such as Muller Hinton Broth) to achieve the desired antimicrobial concentration and are then stored at −80° C. until use. For a given specimen, each antimicrobial is tested at a single or multiple antimicrobial concentration(s) which is its established breakpoints for sensitivity. The antimicrobial solutions are prepared and plated out for each specific pathogen. […] This allows for evaluation of pathogen load when no antimicrobial is present. Specimen Exposure to Antimicrobial Agents. The 1 mL aliquot of the specimen 100 previously mixed with culture media and incubated is obtained. Using optical density measurements as a guide, the specimen 100 is diluted to 0.5 McFarland. […] Antimicrobial exposure plates are typically placed into an incubator for 12-16 hours. […] Nucleic Acid Amplification of Antimicrobial Agent Exposed Pathogens. The antimicrobial exposure plate is removed after the period of incubation. The specimen then undergoes a purification or lysis step. For example, the specimen may undergo a purification step (e.g., magnetic bead-based or other separation protocol to isolate genetic material). In another example, the specimen may undergo a cell lysis step. For example, buffer (e.g., lysis buffer) may be added and incubated in the thermal cycler for preparation for direct PCR. Next, the specimen may undergo a polymerase chain reaction (PCR) testing protocol, whereby a semi-quantitative PCR method is utilized. This may be completed either with or without a specific extraction protocol step. The pathogens can be individually targeted and detected, or a universal genetic sequence can be utilized to detect the antimicrobial susceptibility of the specimen as a whole. The control wells are utilized as a threshold for determining antimicrobial sensitivity or resistance. […] Antimicrobial Susceptibility Result Interpretation.

Where [1] appears, read: E. coli #1 - WDCM 00090 - 6.2×E3.
[2] abbreviates: E. coli #2 - WDCM 00090 - 6.2×E3.
Setting [3] is: E. coli isolate 1189, antibiotic incubation time 4 hours.
[4] abbreviates: E. coli isolate 1189, antibiotic incubation time 6 hours.
Where [5] appears, read: E. coli isolate 1189, antibiotic incubation time 6 hours, control average Ct 16.992.
The mark [6] stands for this setting: E. coli isolate 1189, antibiotic incubation time 8 hours.
[7] abbreviates: E. coli isolate 1189, antibiotic incubation time 10 hours.
The mark [8] stands for this setting: E. coli isolate 1189, antibiotic incubation time 12 hours.
Setting [9] is: E. coli isolate 1189, antibiotic incubation time 12 hours, control average Ct 15.495.
Where [10] appears, read: E. coli isolate 1189, antibiotic incubation time 14 hours.
Where [11] appears, read: E. coli isolate 1189, antibiotic incubation time 14 hours, control average Ct 15.826.
Setting [12] is: E. coli isolate 1189, antibiotic incubation time 16 hours.
The mark [13] stands for this setting: E. coli isolate 1189, antibiotic incubation time 16 hours, control average Ct 14.880.
Where [14] appears, read: E. coli isolate 1189, antibiotic incubation time 4 hours, control average Ct […].
Where [15] appears, read: E. coli isolate 1189, antibiotic incubation time 8 hours, control average Ct […].
The mark [16] stands for this setting: E. coli isolate 1189, antibiotic incubation time 10 hours, control average Ct 15.995.

As for `CC1(C)S[C@@H]2[C@H](NC(=O)[C@H](N)c3ccccc3)C(=O)N2[C@H]1C(=O)O` [Ampicillin], the “Traditional Culture Results” value in the assay with Escherichia coli (setting [1]) and in the assay with Escherichia coli (setting [2]) was “Sensitive” throughout. For the same compound, the “Traditional Culture Result” value with Escherichia coli (E. coli isolate 4 (Table 3)) is “Resistant”; in the assay with Escherichia coli (E. coli isolate 5 (Table 3)) it was “Sensitive”; in the assay on Escherichia coli (E. coli isolate JJ1887), “Resistant”. Moreover, the “Molecular Antimicrobial Susceptibility Result” value in the assay with pathogen of the specimen (setting [3]), with pathogen of the specimen (setting [4]), with pathogen of the specimen (setting [6]), with pathogen of the specimen (setting [7]), in the assay with pathogen of the specimen (setting [8]) and with pathogen of the specimen (setting [10]) was “Resistant” each time. Moreover, in the assay on pathogen of the specimen (setting [12]), the “Molecular Antimicrobial Susceptibility Result” value is “Resistant”. The “Ct at Sensitive Breakpoint” value in the assay with pathogen of the specimen (setting [5]) was determined as 15.362; with pathogen of the specimen (setting [9]) it was 15.183; with pathogen of the specimen (setting [11]) it was 15.465; with pathogen of the specimen (setting [13]) it was 15.036.

For the compound `Cc1nnc(SCC2=C(C(=O)O)N3C(=O)[C@@H](NC(=O)Cn4cnnn4)[C@H]3SC2)s1` [Cefazolin], the “Traditional Culture Results” value in the assay on Escherichia coli (setting [1]) and in the assay with Escherichia coli (setting [2]) was “Sensitive” each time. Moreover, the “Traditional Culture Result” value in the assay with Escherichia coli (E. coli isolate 1 (Table 3)) is listed as “Resistant”; in the assay on Escherichia coli (E. coli isolate 2 (Table 3)) it was “Resistant”; with Escherichia coli (E. coli isolate 3 (Table 3)), “Resistant”; in the assay with Escherichia coli (E. coli isolate 4 (Table 3)), “Resistant”; in the assay on Escherichia coli (E. coli isolate 5 (Table 3)), “Sensitive”; in the assay with Escherichia coli (E. coli isolate JJ1887), “Resistant”. Besides, the “Molecular Antimicrobial Susceptibility Result” value with pathogen of the specimen (setting [3]), with pathogen of the specimen (setting [4]), in the assay with pathogen of the specimen (setting [6]), with pathogen of the specimen (setting [7]), in the assay on pathogen of the specimen (setting [8]) and in the assay on pathogen of the specimen (setting [10]) was “Resistant” in each case. For the same compound, the “Molecular Antimicrobial Susceptibility Result” value in the assay on pathogen of the specimen (setting [12]) was “Resistant”. In addition, the “Ct at Sensitive Breakpoint” value is reported as 16.209 with pathogen of the specimen (setting [14]); 16.328 in the assay with pathogen of the specimen (setting [5]); 17.305 with pathogen of the specimen (setting [15]); 15.756 in the assay with pathogen of the specimen (setting [16]); 15.126 with pathogen of the specimen (setting [9]); 17.599 in the assay on pathogen of the specimen (setting [11]). In addition, the “Ct at Sensitive Breakpoint” value in the assay on pathogen of the specimen (setting [13]) turned out to be 15.199.

As for `C[C@@H]1O[C@@H]1P(=O)(O)O` [Fosfomycin], the “Traditional Culture Results” value in the assay on Escherichia coli (setting [1]) and in the assay on Escherichia coli (setting [2]) was “Sensitive” throughout.

Turning to `C[C@H]1COc2c(N3CCN(C)CC3)c(F)cc3c(=O)c(C(=O)O)cn1c23` [Levofloxacin], the “Molecular Antimicrobial Susceptibility Result” value with pathogen of the specimen (setting [3]), in the assay on pathogen of the specimen (setting [4]), in the assay on pathogen of the specimen (setting [6]), with pathogen of the specimen (setting [7]), in the assay with pathogen of the specimen (setting [8]) and with pathogen of the specimen (setting [10]) was “Sensitive (Antimicrobial wells with pathogen load detected below the control wells (typically >2 cycle thresholds later) may be reported as Sensitive)” in each case. In addition, in the assay with pathogen of the specimen (setting [12]), the “Molecular Antimicrobial Susceptibility Result” value was “Sensitive (Antimicrobial wells with pathogen load detected below the control wells (typically >2 cycle thresholds later) may be reported as Sensitive)”. The “Ct at Sensitive Breakpoint” value in the assay on pathogen of the specimen (setting [14]) stood at 27.130; with pathogen of the specimen (setting [5]), 26.759; with pathogen of the specimen (setting [15]), 27.068; with pathogen of the specimen (setting [16]), 27.170; in the assay with pathogen of the specimen (setting [9]) it was 26.835; with pathogen of the specimen (setting [11]) it was 27.545. For the same compound, the “Ct at Sensitive Breakpoint” value with pathogen of the specimen (setting [13]) amounted to 27.791.

Turning to `O=C1CN(/N=C/c2ccc([N+](=O)[O-])o2)C(=O)N1` [Nitrofurantoin], the “Molecular Antimicrobial Susceptibility Result” value with pathogen of the specimen (setting [3]), in the assay with pathogen of the specimen (setting [4]), with pathogen of the specimen (setting [6]), in the assay with pathogen of the specimen (setting [7]), in the assay on pathogen of the specimen (setting [8]) and with pathogen of the specimen (setting [10]) was “Sensitive (Antimicrobial wells with pathogen load detected below the control wells (typically >2 cycle thresholds later) may be reported as Sensitive)” each time. Further, in the assay with pathogen of the specimen (setting [12]), the “Molecular Antimicrobial Susceptibility Result” value is “Sensitive (Antimicrobial wells with pathogen load detected below the control wells (typically >2 cycle thresholds later) may be reported as Sensitive)”. Further, the “Ct at Sensitive Breakpoint” value is reported as 27.265 in the assay on pathogen of the specimen (setting [14]); 27.430 in the assay with pathogen of the specimen (setting [5]); 28.823 in the assay with pathogen of the specimen (setting [15]); 27.170 in the assay with pathogen of the specimen (setting [16]); 26.777 with pathogen of the specimen (setting [9]); 26.788 in the assay on pathogen of the specimen (setting [11]). In the assay on pathogen of the specimen (setting [13]), the “Ct at Sensitive Breakpoint” value was 24.548.

For Ampicillin/Sulbactam, the “Traditional Culture Result” value with Escherichia coli (E. coli isolate 1 (Table 3)), in the assay with Escherichia coli (E. coli isolate 2 (Table 3)), in the assay on Escherichia coli (E. coli isolate 3 (Table 3)) and in the assay with Escherichia coli (E. coli isolate JJ1887) was “Resistant” throughout.
